# According to PubChem BioAssay (NCI):
#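 1) Cells in 96-well plates. 2) Compound, 48 h, 5 concentrations. 3) Linear interpolation between surrounding doses. 4) Unreached endpoint = highest concentration. Here, GI50 denotes the concentration required for 50% inhibition of growth. At the TGI there is no net growth.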
# What was measured:
# Assay in all cases: NCI tumour cell line growth inhibition, 48 h
# HOP-62 NSCLC = system: HOP-62 NSCLC
# SNB-19 CNS = system: SNB-19 CNS
# RPMI-8226 leukemia = system: RPMI-8226 leukemia
# K-562 leukemia = system: K-562 leukemia
# SF-268 CNS = system: SF-268 CNS
# NCI-H23 lung = system: NCI-H23 lung
# A498 renal = system: A498 renal
# TK-10 renal = system: TK-10 renal
# LOX IMVI melanoma = system: LOX IMVI melanoma
# SR leukemia = system: SR leukemia
# HS 578T breast = system: HS 578T breast
# ACHN renal = system: ACHN renal
# MCF7 breast = system: MCF7 breast
# NCI/ADR-RES ovarian = system: NCI/ADR-RES ovarian
# MDA-MB-231 breast = system: MDA-MB-231 breast
# RXF 393 renal = system: RXF 393 renal
# SNB-75 CNS = system: SNB-75 CNS
# NCI-H522 lung = system: NCI-H522 lung
# BT-549 breast = system: BT-549 breast
# OVCAR-8 ovarian = system: OVCAR-8 ovarian
# CAKI-1 renal = system: CAKI-1 renal
# SK-MEL-5 melanoma = system: SK-MEL-5 melanoma
# NCI-H226 lung = system: NCI-H226 lung
# COLO 205 colon = system: COLO 205 colon
# OVCAR-5 ovarian = system: OVCAR-5 ovarian
# SW-620 colon = system: SW-620 colon
# OVCAR-4 ovarian = system: OVCAR-4 ovarian
# UACC-257 melanoma = system: UACC-257 melanoma
# HL-60(TB) leukemia = system: HL-60(TB) leukemia
# SF-539 CNS = system: SF-539 CNS
# OVCAR-3 ovarian = system: OVCAR-3 ovarian
# IGROV1 ovarian = system: IGROV1 ovarian
# HCT-15 colon = system: HCT-15 colon
# EKVX NSCLC = system: EKVX NSCLC
# U251 CNS = system: U251 CNS
# HCC-2998 colon = system: HCC-2998 colon
# HOP-92 NSCLC = system: HOP-92 NSCLC
# SK-MEL-28 melanoma = system: SK-MEL-28 melanoma
# MOLT-4 leukemia = system: MOLT-4 leukemia
# T-47D breast = system: T-47D breast
# PC-3 prostate = system: PC-3 prostate
# MDA-MB-435 = system: MDA-MB-435
# KM12 colon = system: KM12 colon
# A549 NSCLC = system: A549 NSCLC
# MALME-3M melanoma = system: MALME-3M melanoma
# UACC-62 melanoma = system: UACC-62 melanoma
# CCRF-CEM leukemia = system: CCRF-CEM leukemia
# SK-MEL-2 melanoma = system: SK-MEL-2 melanoma
# SK-OV-3 ovarian = system: SK-OV-3 ovarian
# M14 melanoma = system: M14 melanoma
# DU-145 prostate = system: DU-145 prostate
# SF-295 CNS = system: SF-295 CNS
# NCI-H460 lung = system: NCI-H460 lung
# HT29 colon = system: HT29 colon
# 786-0 renal = system: 786-0 renal
compound,measurement,setting,value
COc1cc2c(cc1OCCCCCN1CCN(CCCCCOc3cc4c(cc3OC)C(=O)C3CCC[C@H]3C=N4)CC1)N=C[C@@H]1CCCC1C2=O (stereo not given in full),GI50,HOP-62 NSCLC,> 100 µM
same,TGI,HOP-62 NSCLC,> 100 µM
same,GI50,SNB-19 CNS,> 39.4 µM
same,TGI,SNB-19 CNS,> 100 µM
same,GI50,RPMI-8226 leukemia,1.84 µM
same,TGI,RPMI-8226 leukemia,11.9 µM
same,GI50,K-562 leukemia,6.51 µM
same,TGI,K-562 leukemia,28.4 µM
same,GI50,SF-268 CNS,3.51 µM
same,TGI,SF-268 CNS,> 100 µM
same,GI50,NCI-H23 lung,3.72 µM
same,TGI,NCI-H23 lung,> 21.1 µM
same,GI50,A498 renal,2.07 µM
same,TGI,A498 renal,5.48 µM
same,GI50,TK-10 renal,5.05 µM
same,TGI,TK-10 renal,14.6 µM
same,GI50,LOX IMVI melanoma,3.07 µM
same,TGI,LOX IMVI melanoma,> 100 µM
same,GI50,SR leukemia,2.97 µM
same,TGI,SR leukemia,39.6 µM
same,GI50,HS 578T breast,5.63 µM
same,TGI,HS 578T breast,> 68.7 µM
same,GI50,ACHN renal,18.9 µM
same,TGI,ACHN renal,> 100 µM
same,GI50,MCF7 breast,2.72 µM
same,TGI,MCF7 breast,> 100 µM
same,GI50,NCI/ADR-RES ovarian,> 100 µM
same,TGI,NCI/ADR-RES ovarian,> 100 µM
same,GI50,MDA-MB-231 breast,3.84 µM
same,TGI,MDA-MB-231 breast,> 100 µM
same,GI50,RXF 393 renal,2.23 µM
same,TGI,RXF 393 renal,7.11 µM
same,GI50,SNB-75 CNS,16.1 µM
same,TGI,SNB-75 CNS,> 94.4 µM
same,GI50,NCI-H522 lung,1.76 µM
same,TGI,NCI-H522 lung,> 100 µM
same,GI50,BT-549 breast,10.9 µM
same,TGI,BT-549 breast,> 86.8 µM
same,GI50,OVCAR-8 ovarian,7.89 µM
same,TGI,OVCAR-8 ovarian,> 37 µM
same,GI50,CAKI-1 renal,27.5 µM
same,TGI,CAKI-1 renal,> 81.4 µM
same,GI50,SK-MEL-5 melanoma,3.34 µM
same,TGI,SK-MEL-5 melanoma,21.6 µM
same,GI50,NCI-H226 lung,4.8 µM
same,TGI,NCI-H226 lung,> 74.3 µM
same,GI50,COLO 205 colon,2.67 µM
same,TGI,COLO 205 colon,11.3 µM
same,GI50,OVCAR-5 ovarian,5.52 µM
same,TGI,OVCAR-5 ovarian,> 54.1 µM
same,GI50,SW-620 colon,2.51 µM
same,TGI,SW-620 colon,46.6 µM
same,GI50,OVCAR-4 ovarian,42 µM
same,TGI,OVCAR-4 ovarian,> 100 µM
same,GI50,UACC-257 melanoma,9.73 µM
same,TGI,UACC-257 melanoma,> 46 µM
same,GI50,HL-60(TB) leukemia,2.83 µM
same,TGI,HL-60(TB) leukemia,7.15 µM
same,GI50,SF-539 CNS,9.82 µM
same,TGI,SF-539 CNS,> 79 µM
same,GI50,OVCAR-3 ovarian,10.1 µM
same,TGI,OVCAR-3 ovarian,> 93.4 µM
same,GI50,IGROV1 ovarian,3.88 µM
same,TGI,IGROV1 ovarian,> 25 µM
same,GI50,HCT-15 colon,52.9 µM
same,TGI,HCT-15 colon,> 100 µM
same,GI50,EKVX NSCLC,41.3 µM
same,TGI,EKVX NSCLC,> 100 µM
same,GI50,U251 CNS,3.74 µM
same,TGI,U251 CNS,> 100 µM
same,GI50,HCC-2998 colon,2.18 µM
same,TGI,HCC-2998 colon,6.02 µM
same,GI50,HOP-92 NSCLC,3.22 µM
same,TGI,HOP-92 NSCLC,> 42.6 µM
same,GI50,SK-MEL-28 melanoma,19.4 µM
same,TGI,SK-MEL-28 melanoma,> 100 µM
same,GI50,MOLT-4 leukemia,2.55 µM
same,TGI,MOLT-4 leukemia,7 µM
same,GI50,T-47D breast,6.89 µM
same,TGI,T-47D breast,> 100 µM
same,GI50,PC-3 prostate,3.16 µM
same,TGI,PC-3 prostate,> 100 µM
same,GI50,MDA-MB-435,5.81 µM
same,TGI,MDA-MB-435,39.9 µM
same,GI50,KM12 colon,13.9 µM
same,TGI,KM12 colon,> 100 µM
same,GI50,A549 NSCLC,10.7 µM
same,TGI,A549 NSCLC,> 51.8 µM
same,GI50,MALME-3M melanoma,23 µM
same,TGI,MALME-3M melanoma,47.7 µM
same,GI50,UACC-62 melanoma,2.35 µM
same,TGI,UACC-62 melanoma,7.87 µM
same,GI50,CCRF-CEM leukemia,3.06 µM
same,TGI,CCRF-CEM leukemia,> 48.7 µM
same,GI50,SK-MEL-2 melanoma,2.2 µM
same,TGI,SK-MEL-2 melanoma,5.26 µM
same,GI50,SK-OV-3 ovarian,43.2 µM
same,TGI,SK-OV-3 ovarian,> 100 µM
same,GI50,M14 melanoma,17.5 µM
same,TGI,M14 melanoma,80.9 µM
same,GI50,DU-145 prostate,12.9 µM
same,TGI,DU-145 prostate,> 100 µM
same,GI50,SF-295 CNS,6.19 µM
same,TGI,SF-295 CNS,> 100 µM
same,GI50,NCI-H460 lung,3.38 µM
same,TGI,NCI-H460 lung,> 94.2 µM
same,GI50,HT29 colon,9.47 µM
same,TGI,HT29 colon,> 100 µM
same,GI50,786-0 renal,1.51 µM
same,TGI,786-0 renal,4.64 µM
